Values quoted from earlier work as cited in article PMC9516332 (Frontiers in Oncology, 2022).
Read-outs that look alike come from different tables or passages of the source.

Tests used:
Settings in all cases: cited from earlier work
[1] = target: panel of 255 wild-type kinases (Homo sapiens, UniProt Q9P289)
[2] = target: panel of 255 wild-type kinases (Homo sapiens, UniProt P27361)
[3] = target: T1, panel of 255 wild-type kinases (Homo sapiens, UniProt Q14164)
T1 sequence (Q14164 1-716): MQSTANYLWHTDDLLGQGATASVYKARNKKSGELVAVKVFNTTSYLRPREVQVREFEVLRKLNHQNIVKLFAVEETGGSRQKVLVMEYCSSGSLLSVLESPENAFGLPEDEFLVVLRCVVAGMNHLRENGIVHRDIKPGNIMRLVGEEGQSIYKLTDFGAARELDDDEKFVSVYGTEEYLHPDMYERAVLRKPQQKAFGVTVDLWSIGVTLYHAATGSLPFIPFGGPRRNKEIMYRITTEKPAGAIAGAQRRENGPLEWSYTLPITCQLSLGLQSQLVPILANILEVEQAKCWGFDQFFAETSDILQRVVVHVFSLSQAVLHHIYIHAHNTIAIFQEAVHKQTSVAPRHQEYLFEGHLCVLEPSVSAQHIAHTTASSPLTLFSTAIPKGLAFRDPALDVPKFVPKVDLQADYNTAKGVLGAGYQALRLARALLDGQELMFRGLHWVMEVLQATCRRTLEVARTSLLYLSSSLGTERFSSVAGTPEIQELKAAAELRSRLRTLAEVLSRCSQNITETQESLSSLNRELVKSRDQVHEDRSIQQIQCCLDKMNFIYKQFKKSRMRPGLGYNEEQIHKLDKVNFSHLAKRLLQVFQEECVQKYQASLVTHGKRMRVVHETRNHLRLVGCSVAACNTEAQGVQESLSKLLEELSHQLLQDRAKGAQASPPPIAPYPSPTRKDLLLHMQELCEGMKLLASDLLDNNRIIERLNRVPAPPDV

[4] = target: panel of 255 wild-type kinases (Homo sapiens, UniProt P07333)
[5] = target: T2, panel of 255 wild-type kinases (Homo sapiens, UniProt Q8TDC3)
T2 sequence (Q8TDC3 1-778): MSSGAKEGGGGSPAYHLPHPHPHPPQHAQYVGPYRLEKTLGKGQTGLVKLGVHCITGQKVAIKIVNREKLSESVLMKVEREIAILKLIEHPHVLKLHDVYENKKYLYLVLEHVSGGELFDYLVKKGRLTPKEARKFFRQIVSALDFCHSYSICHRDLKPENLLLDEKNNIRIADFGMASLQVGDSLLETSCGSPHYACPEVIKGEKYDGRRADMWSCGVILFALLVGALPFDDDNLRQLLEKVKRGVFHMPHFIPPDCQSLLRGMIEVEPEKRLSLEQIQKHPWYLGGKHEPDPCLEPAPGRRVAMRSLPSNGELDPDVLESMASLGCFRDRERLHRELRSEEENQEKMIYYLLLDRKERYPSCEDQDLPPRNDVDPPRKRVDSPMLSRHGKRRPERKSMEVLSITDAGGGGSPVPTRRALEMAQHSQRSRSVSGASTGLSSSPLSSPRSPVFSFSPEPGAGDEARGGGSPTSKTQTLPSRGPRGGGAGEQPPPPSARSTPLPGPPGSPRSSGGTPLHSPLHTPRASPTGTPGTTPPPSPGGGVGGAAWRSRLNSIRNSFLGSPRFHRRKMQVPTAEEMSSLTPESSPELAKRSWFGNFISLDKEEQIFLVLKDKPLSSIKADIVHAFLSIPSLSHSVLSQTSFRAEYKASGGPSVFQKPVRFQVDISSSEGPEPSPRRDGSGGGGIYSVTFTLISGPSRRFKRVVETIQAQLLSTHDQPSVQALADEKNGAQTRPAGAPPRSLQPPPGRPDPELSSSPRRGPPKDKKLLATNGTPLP

[6] = MST4, 1 µmol/L single concentration, ref DOI: 10.1158/1535-7163.MCT-18-0877
[7] = kinase Erk1, 1 µmol/L single concentration, ref DOI: 10.1158/1535-7163.MCT-18-0877
[8] = kinase IKKε, 1 µmol/L single concentration, ref DOI: 10.1158/1535-7163.MCT-18-0877
[9] = kinase FMS, 1 µmol/L single concentration, ref DOI: 10.1158/1535-7163.MCT-18-0877
[10] = BRSK1 kinase assay, 1 µmol/L single concentration, ref DOI: 10.1158/1535-7163.MCT-18-0877
[11] = MST4, 1 µmol/L single concentration, ref DOI: 10.1371/journal.pone.0092146
[12] = kinase Erk1, 1 µmol/L single concentration, ref DOI: 10.1371/journal.pone.0092146
[13] = kinase IKKε, 1 µmol/L single concentration, ref DOI: 10.1371/journal.pone.0092146
[14] = kinase FMS, 1 µmol/L single concentration, ref DOI: 10.1371/journal.pone.0092146
[15] = BRSK1 kinase assay, 1 µmol/L single concentration, ref DOI: 10.1371/journal.pone.0092146

Row | Structure (SMILES) | %-inhibition, MST4 [1, 6] [%] | %-inhibition at 1 µmol/L, Erk1 [2, 7] [%] | %-inhibition at 1 µmol/L, IKKε [3, 8] [%] | %-inhibition at 1 µmol/L, FMS [4, 9] [%] | %-inhibition BRSK1 [5, 10] [%] | %-inhibition, MST4 [1, 11] [%] | %-inhibition at 1 µmol/L, Erk1 [2, 12] [%] | %-inhibition at 1 µmol/L, IKKε [3, 13] [%] | %-inhibition at 1 µmol/L, FMS [4, 14] [%] | %-inhibition BRSK1 [5, 15] [%] | also measured
1 | CC#CC(=O)N1CCC[C@H]1c1nc(-c2ccc(C(=O)Nc3ccccn3)cc2)c2c(N)nccn12 [acalabrutinib] | -6.42 | -2.38 | 1.46 | 8 | -1.79 |  |  |  |  |  | 
2 | CCc1cc2c(cc1N1CCC(N3CCOCC3)CC1)C(C)(C)c1[nH]c3cc(C#N)ccc3c1C2=O [alectinib] | -7 | 1.41 | 1.59 | 19 | 8.48 |  |  |  |  |  | 
3 | COc1cc(N2CCC(N3CCN(C)CC3)CC2)ccc1Nc1ncc(Cl)c(Nc2ccccc2P(C)(C)=O)n1 [brigatinib] |  |  |  |  |  |  |  |  |  |  | %-inhibition, MST4 [1]: -1.25%; %-inhibition at 1 µmol/L, Erk1 [2]: 3.68%; %-inhibition at 1 µmol/L, IKKε [3]: 24%; %-inhibition at 1 µmol/L, FMS [4]: 100%; %-inhibition BRSK1 [5]: 84%
4 | Cc1cc(Nc2ncc(Cl)c(Nc3ccccc3S(=O)(=O)C(C)C)n2)c(OC(C)C)cc1C1CCNCC1 [ceritinib] | 4 | 35 | 6.42 | 55 | 32 |  |  |  |  |  | 
5 | O=C(c1ccc(F)c(F)c1Nc1ccc(I)cc1F)N1CC(O)([C@@H]2CCCCN2)C1 [cobimetinib] | -0.477 | -0.916 | -3.35 | 5 | -13 |  |  |  |  |  | 
6 | C[C@@H](Oc1cc(-c2cnn(C3CCNCC3)c2)cnc1N)c1c(Cl)ccc(F)c1Cl [crizotinib] |  |  |  |  |  | 0.54 | -2 | 7.49 | 92 | 12 | 
7 | CC(C)(C)c1nc(-c2cccc(NS(=O)(=O)c3c(F)cccc3F)c2F)c(-c2ccnc(N)n2)s1 [dabrafenib] |  |  |  |  |  | -7 | -1.62 | 15 | 15 | 37 | 
8 | C=CC(=O)N1CCC[C@@H](n2nc(-c3ccc(Oc4ccccc4)cc3)c3c(N)ncnc32)C1 [ibrutinib] | 1.46 | 1.74 | -0.696 | 19 | -7 |  |  |  |  |  | 
9 | CO[C@@H]1[C@H](N(C)C(=O)c2ccccc2)C[C@H]2O[C@]1(C)n1c3ccccc3c3c4c(c5c6ccccc6n2c5c31)C(=O)NC4 [midostaurin] | 52 | -0.653 | 97 | 95 |  |  |  |  |  |  | %-inhibition BRSK1 [5]: 95%
10 | C=CC(=O)Nc1cc(Nc2nccc(-c3cn(C)c4ccccc34)n2)c(OC)cc1N(C)CCN(C)C [osimertinib] | 1.61 | -3.18 | 8 | 47 | -12 |  |  |  |  |  | 
11 | CC(=O)Nc1cccc(-n2c(=O)n(C3CC3)c(=O)c3c(Nc4ccc(I)cc4F)n(C)c(=O)c(C)c32)c1 [trametinib] |  |  |  |  |  | -2.23 | -1.14 | -3.63 | -4 | -6 | 
12 | CCCS(=O)(=O)Nc1ccc(F)c(C(=O)c2c[nH]c3ncc(-c4ccc(Cl)cc4)cc23)c1F [vemurafenib] |  |  |  |  |  | -4.62 | 0.0533 | -9 | 6 | -8 | 
